Here are results for four compounds from patent US9708259B2 (Hoffmann-La Roche Inc., priority 2013, dated 2017).

One data set concerns APP processing. The note with it: cited from earlier work.
The conditions of data set [1]: cited from earlier work.
The next data set addresses T1, human M1 (Homo sapiens, UniProt P11229).
T1 construct: expressed in transfected cells; host or cells: CHO cells
T1 sequence (P11229 1-460): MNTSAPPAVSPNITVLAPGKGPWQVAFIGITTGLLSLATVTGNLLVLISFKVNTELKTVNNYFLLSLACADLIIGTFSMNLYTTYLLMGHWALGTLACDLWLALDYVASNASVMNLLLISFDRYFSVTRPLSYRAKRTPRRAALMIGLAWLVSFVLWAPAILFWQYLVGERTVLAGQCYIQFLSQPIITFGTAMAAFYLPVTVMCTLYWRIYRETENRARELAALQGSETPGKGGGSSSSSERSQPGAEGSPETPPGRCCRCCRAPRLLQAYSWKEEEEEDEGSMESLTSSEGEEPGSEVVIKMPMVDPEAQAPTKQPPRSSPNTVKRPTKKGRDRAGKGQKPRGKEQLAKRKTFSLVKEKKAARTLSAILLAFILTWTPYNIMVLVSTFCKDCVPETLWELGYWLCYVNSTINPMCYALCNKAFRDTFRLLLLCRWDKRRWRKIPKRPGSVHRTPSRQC
The experiment in a line: M1 PAM assay (FLIPR intracellular calcium), human M1. In kind it is cell-based. The note with it: CHO human M1 cells, FLIPR Ca2+, with EC20 of acetylcholine; first value of the cell; read-out: hM1 EC50. In short, it runs like this: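 CHO cells expressing M1, Fluo-4AM-loaded, in HEPES/probenecid HBSS pH 7.4, 1% DMSO final. Compounds pre-incubated 2 min for agonist activity versus 30 nM acetylcholine control. For PAM activity, acetylcholine EC20 added after the 2 min pre-incubation, then 2 min more before FLIPR intracellular Ca2+ read.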
In general terms: A change in cytosolic calcium serves as a functional read-out for many receptors and channels.

For the next data set, the target named is T2, ratM1 (Rattus norvegicus, UniProt P08482).
T2 construct: expressed in transfected cells; host or cells: CHO cells (stated generally for the assay, not specifically for rat M1)
T2 sequence (P08482 1-460): T1 sequence (P11229 1-460) with A5V, T254S, P309S, R320K, A337G, I413V
Kind of data set: M1 PAM assay (FLIPR intracellular calcium), rat M1. In kind it is cell-based. The note with it: rat M1, FLIPR Ca2+; second value of the cell; read-out: ratM1 EC50.

Each structure is given as a SMILES string. Substitutions are numbered along the chain they refer to. pEC50: −log10 of the molar value.

As to `Cc1cc(NC(=O)CS(=O)(=O)c2cn(Cc3cc(Br)ccc3F)c3ccccc23)no1` [ML169], the “non-amyloidogenic APP processing” value in the data set on APP processing is given as “promote non-amyloidogenic APP processing”.

Consider `CCCCCCOc1nsnc1C1=CCCN(C)C1` [Xanomeline], for which the “cognitive scores and psychotic-like behaviors in patients with Alzheimer's disease” value in data set [1] (clinical studies, patients with Alzheimer's disease (AD)) is “improved cognitive scores and reduced psychotic-like behaviors”. In addition, in data set [1] (clinical studies, schizophrenic patients), the “efficacy on symptoms in schizophrenic patients” value is “robust efficacy on positive, negative and cognitive symptoms”. For the same compound, the “adverse effects (sweating, salivation, gastrointestinal distress, bradycardia)” value in data set [1] (clinical, attributed to insufficient M1 subtype selectivity) is given as “always associated with adverse effects”.

`Cc1ccc(F)c2c(C(=O)N[C@H]3CCCC[C@@H]3O)cn(Cc3ccc(-c4cnn(C)c4)cc3F)c12` [Example 45, 4-fluoro-1-(2-fluoro-4-(1-methyl-1H-pyrazol-4-yl)benzyl)-N-((1S,2S)-2-hydroxycyclohexyl)-7-methyl-1H-indole-3-carboxamide]: the values for the pEC50 on human M1 and at ratM1 were 7.44 and 7.13, respectively.

On to `COc1ccc(F)c2c(C(=O)NC3CCOCC3)cn(Cc3ccc(-c4cnn(C)c4)cc3F)c12` [Example 152, 4-fluoro-1-(2-fluoro-4-(1-methyl-1H-pyrazol-4-yl)benzyl)-7-methoxy-N-(tetrahydro-2H-pyran-4-yl)-1H-indole-3-carboxamide], for which the figures for the pEC50 on human M1 and on ratM1 were 6.59 and 6.22, respectively.

As a reminder, the pEC50 is the negative decadic logarithm of the EC50, by convention in mol/L.
